The source of these data is patent publication US10434134B2, “Peptide treatment for inflammation and fibrosis” (The Regents of the University of California, priority 2015, dated 2019).

The subject of series [1] is Human Activated Liver Myofibroblasts. Description: Cell death of activated primary human liver myofibroblasts in culture. It counts as cell-based. More on the design: concentration or dose not given beside the values. The source says:
(§1) Assays were used in a step-wise manner to select the safest and most efficient peptides (including apoptosis assays in activated primary human liver myofibroblasts; cell-free caspase 8 activation assays; acute liver injury/fibrogenesis models; toxicology assays in highly differentiated, primary human hepatocyte cultures and in mice).

The test system of series [2] is Mouse Activated Liver Myofibroblasts. The series can be described thus: Cell death of activated primary mouse liver myofibroblasts in culture. It counts as cell-based.
In series [3] the test system is primary mouse and human hepatocytes.
Source text: as §1

The nature of series [4]: Mouse toxicity (in vivo). The note with it: for Mouse Toxicity (in vivo): 20 mg/kg.
Source text: as §1

Series [5] has as its system CCl4-induced acute liver injury in mice. The series can be described thus: Acute CCl4 liver injury and activation of liver myofibroblasts in mice (Example 1). Format: in vivo, mouse. More on the design: serum ALT: unit not given here. The note with it: for minimizing acute liver injury and activation of myofibroblasts: compared with the lead PEG peptide. The procedure: FIG. 1. The therapeutic lead peptide inhibits the activation of liver myofibroblasts and liver injury that induces fibrosis following exposure to the human hepatotoxin CCl4. A single dose of CCl4 was administered to C/EBPβ-wt mice (4). Eight hours later, animals received an IP injection of the therapeutic lead peptide (5 μg of peptide linked to PEG). Animals were sacrificed at 30 hr after the CCl4 administration. The animals receiving only CCl4 had intense activation of myofibroblasts (as determined by α-SMA) (upper row) and severe liver injury (as assessed by standard clinical examination just before sacrifice); the lead peptide blocked the discoloration and granular appearance of severe liver injury. The livers of treated mice were similar to control (second row). The histopathology induced by CCl4 was activation of myofibroblasts (α-SMA), severe liver injury (H&E stain) with collapse of the architecture (Reticulin stain). The therapeutic PEG-30 kDa-peptide decreased both the activation of myofibroblasts and the injury to the liver.
To induce acute liver injury, a single dose of the human hepatotoxin Carbon Tetrachloride (CCl4) was administered to normal mice (4). Eight hours later, animals received an IP injection of the lead therapeutic PEG-30 kDa-peptide (5 μg of the peptide linked [peptide to PEG at 1:60] to the PEG-30 kDa). Animals were sacrificed after 30 hr, at the peak of hepatocyte death as measured by ALT (a clinical end-point used routinely in clinical practice and by the FDA in the evaluation of liver toxicity in human drug studies) (16). […] There was severe acute liver injury in animals receiving CCl4 but mild-to-moderate injury in animals receiving both CCl4 and the lead therapeutic compound (FIG. 1).

The test system of series [6] is CCl4-induced liver fibrosis in mice. Description: Chronic 16-wk CCl4 mouse model of liver fibrosis (Example 2). Format: in vivo. The note with it: for decrease of liver fibrosis / Liver fibrosis, quantification of the Sirius stain (percentage fibrosis/area): CCl4 16-wk; for decrease of liver fibrosis: 7 μg IP once per week from week-8; for Liver fibrosis, quantification of the Sirius stain (percentage fibrosis/area): 7 μg peptide linked to 420 μg PEG-30 kDa once a week from week-8, n=6/group. The procedure:
FIGS. 2A-2B. High efficacy of the therapeutic PEG-30 kDa-peptides in a chronic mouse model of liver fibrosis. All groups of mice (except control) received CCl4 administration for 16-wk (n=6/group). The CCl4 treatment group received only the hepatotoxin, while the other groups also received the indicated therapeutic PEG-30 kDa-peptide (7 μg of peptide linked to 420 μg PEG-30 kDa once a week) starting at week-8. FIG. 2A. Liver fibrosis was determined by quantification of the Sirius stain (percentage fibrosis/area) as described (7; 25): control (0.02+/−0.01); lead peptide (0.8+/−0.7); alternate peptide 1 (2.1+/−1.0); alternate peptide 2 (3.5+/−1.2) and CCl4 (6.7+/−1.6%). P<0.0001 for lead peptide 1 and P<0.001 for alternate peptides 1 and 2. FIG. 2B. Liver fibrosis was detected histologically by the trichrome stain for liver fibrosis as it is the clinical standard. The control animals (receiving only vehicle control) had negligible fibrosis (stage 0-1/VI); animals receiving CCl4 for 16 weeks developed severe fibrosis (stage 5/VI or 6/VI; which would be clinically significant in patients); while animals receiving CCl4 for 16 weeks and also the lead PEG-30 kDa-peptide 1 starting at week-8 had minor fibrosis (stage 1-2/VI; which would not be clinically significant in patients).
The therapeutic lead PEG-peptides underwent a systematic analysis of efficacy and safety in a classical chronic liver fibrosis model (7; 15; 24; 38). CCl4 (a human hepatotoxin) was administered to mice for 16-wk as a classical model of liver fibrosis (7). The three selected therapeutic PEG-peptides were administered once a week IP (7 μg of peptide linked to PEG) starting at week 8, once severe liver fibrosis was already established. The efficacy of the three selected PEG peptides included quantitative analysis of liver fibrosis (7). CCl4 administration to mice for 16-wk induced liver cirrhosis (FIGS. 2A and 2B). […] This mimics the treatment given for several years to a patient with established severe liver fibrosis.
The Ac-Lys-D-Ala-D-Val-Asp-NH2 was administered IP (7 μg of peptide linked to PEG-30 kDa) once/week for an additional 4 or 8 weeks. The CCl4 administration continued for 4 or 8 weeks. The Ac-Lys-D-Ala-D-Val-Asp-NH2 peptide inhibited liver fibrosis by 8-fold.
The parent peptide inhibited liver fibrosis by only 2 to 3-fold.

The test system of series [7] is Bleomycin-induced lung fibrosis in C/EBPβ-wt mice. Description: Bleomycin mouse model of lung fibrosis, various administration routes (Example 11). It counts as in vivo. Particulars: for decrease in lung fibrosis: days 10, 17 and 24. The procedure: C/EBPβ-wt mice received Bleomycin administration as described above. On day-10, once the fibrotic reaction is established, mice received i) PEG-30 kDa-Lys-DAla-DVal-Asp-NH2 intraperitoneally (IP) 10 μg of peptide linked to PEG, on days 10, 17 and 24); or ii) peptide PEG-30 kDa-Lys-DAla-DVal-Asp-NH2 by inhalation (mean particle size […]—which reaches efficiently the alveoli-, 800 μg of peptide on days 10, 17 and 24; specific inhalation parameters are shown in Table 2). The peptide was administered for less than 1 hour a day [on days 10, 17, and […]] via nose-only inhalation of the test material aerosol at a nominal concentration of 1.0 mg/L [800 μg/dose]; or iii) peptide PEG-30 kDa-Lys-DAla-DVal-Asp-NH2 by intratracheal instillation (40 μg of peptide on days 10, 17 and 24).
Control groups received sterile water instead of Bleomycin; peptide IP; peptide by inhalation; or peptide by intratracheal instillation. Animals were sacrificed on day 27. The left lung was inflated with fixative, analyzed by trichrome stain and quantified in its entirety by the Odyssey Visualization microscopy software protocol to minimize analytical errors as described previously (Ramamoorthy et al., 2009, American Journal of Physiology, Endocrinology and Metabolism 297: e392-401). The right lung was snap frozen in liquid nitrogen and used for IMH, immunoblots and qRT-PCR.

Series [8] is described as follows: Plasma levels of peptide and MPR-intermediate after IV PEGylated-peptide 361332. Format: in vivo. Particulars: CD-1 mouse, n = 1. The source says: Studies using the PEGylated-peptide 361332 are provided
Levels of Peptide and MPR-Intermediate in Plasma Samples

Setting [9] is: liver, 30 hr after CCl4, single IP 5 μg at 8 hr.

Where a SMILES comes first, the peptide text is derived from it. Where no end group is shown, it is not given here. [ ]: non-standard residue; d: D form. Mpa = O=C(O)CCS

For [dK]A[dV]D-NH2, the “Human Activated Liver Myofibroblasts Death Cell (%)” value in series [1] came to 30.6%.
Regarding “Ac-Lys-Ala-Val-Asp-NH2 (Ac-KAVD-NH2) [Parent peptide, reference compound]”, the “Mouse Activated Liver Myofibroblasts Death Cell (%) [20 ng/ml]” value in series [2] is reported as 89.5%. For the same compound, the “Human Activated Liver Myofibroblasts Death Cell (%)” value in series [1] is on record as 80.9%. Besides, in series [3], the “Hepatocyte Toxicity [20 ng/ml]” value is given as “No toxicity”. Moreover, the “Mouse Toxicity (in vivo)” value in series [4] is on record as “No:”. In addition, the “toxicity issues observed in mice” value in series [4] (mouse, in vivo) is given as “no toxicity issues”.
[dK]AV[dD]-NH2: the “Human Activated Liver Myofibroblasts Death Cell (%)” value in series [1] stood at 44.0%.
Regarding “Peg-30kDa-Lys-Ala-DVal-Asp-NH2 [Alternate therapeutic peptide 2]”, in series [2], the “Mouse Activated Liver Myofibroblasts Death Cell (%) [20 ng/ml]” value worked out at 57.1%. Besides, in series [1], the “Human Activated Liver Myofibroblasts Death Cell (%)” value is given as 72.3%. Moreover, the “Hepatocyte Toxicity [20 ng/ml]” value in series [3] was “No toxicity”. Also, in series [5], the “minimizing acute liver injury and activation of myofibroblasts” value is recorded as “performed similarly to the lead PEG peptide”. Moreover, in series [6], the “decrease of liver fibrosis” value is recorded as ~2 fold and the “Liver fibrosis, quantification of the Sirius stain (percentage fibrosis/area)” value (“Liver fibrosis … (percentage fibrosis/area)” below) is reported as 3.5+/−1.2%.
“Peg-30kDa-Lys-DAla-Val- Asp-NH2 [Alternate therapeutic peptide 1]”: the “Mouse Activated Liver Myofibroblasts Death Cell (%) [20 ng/ml]” value in series [2] is on record as 79.9%. In addition, the “Human Activated Liver Myofibroblasts Death Cell (%)” value in series [1] came out at 67.9%. Moreover, in series [3], the “Hepatocyte Toxicity [20 ng/ml]” value is listed as “No toxicity”. The “minimizing acute liver injury and activation of myofibroblasts” value in series [5] is listed as “performed similarly to the lead PEG peptide”. For the same compound, in series [6], the “decrease of liver fibrosis” value is ~3 fold and the “Liver fibrosis … (percentage fibrosis/area)” value was 2.1+/−1.0%.
As for “PEG-30 kDa-Lys-DAla-DVal-Asp-NH2 [Lead therapeutic peptide]”, the “Mouse Activated Liver Myofibroblasts Death Cell (%) [20 ng/ml]” value in series [2] amounted to 90.5%. In series [1], the “Human Activated Liver Myofibroblasts Death Cell (%)” value is on record as 86.2%. Also, the “Hepatocyte Toxicity [20 ng/ml]” value in series [3] is “No toxicity”. Also, the “Mouse Toxicity (in vivo)” value in series [4] is “No:”. The “serum ALT” value in series [5] (30 hr after CCl4, single IP treatment (5 μg peptide linked to PEG-30 kDa) 8 hr after CCl4) was 6,754+/−905. Also, in series [5] (CCl4 plus peptide, 30 hr), the “acute liver injury severity” value is “mild-to-moderate” and the “expression of α-SMA in the liver (activated liver myofibroblasts)” value is “minor expression”. In series [5] (setting [9]), the “IL-6 mRNA” value is “normal”; the “TNF-α mRNA, increase from control values” is 4 fold; the “albumin mRNA, decrease from control values” worked out at 2 fold. In series [6], the “decrease of liver fibrosis” value was > 8 fold and the “Liver fibrosis … (percentage fibrosis/area)” value was 0.8+/−0.7%. The “Liver fibrosis stage, trichrome stain” value in series [6] (CCl4 16 weeks, peptide starting at week-8) was 1-2 /VI. Besides, in series [7] (IP), the “inhibition in lung alveolar epithelial cell apoptosis” value is listed as ~60% and the “surfactant protein-C (SFPC) expression by quantitative IHC” value is recorded as “essentially normal”. In series [7] (IP 10 μg of peptide linked to PEG), the “decrease in lung fibrosis” value is reported as ~60%. In addition, the “lung inflammation as determined by the expression of IL-23R (marker of Th-17 cells)” value in series [7] (all treatments (IP, inhalation, intratracheal)) was “decreased”. Moreover, the “improvement of Tidal Volume” value in series [7] (all treatments (IP, intratracheal instillation, inhalation), 14-day treatment) is reported as > 35%. Further, in series [7] (inhalation), the “inhibition in lung alveolar epithelial cell apoptosis” value was ~60% and the “surfactant protein-C (SFPC) expression by quantitative IHC” value was “essentially normal”. For the same compound, the “decrease in lung fibrosis” value in series [7] (inhalation 800 μg of peptide) was ~60%. Besides, in series [7] (intratracheal instillation 40 μg of peptide, days 10, 17 and 24 (therapeutic positive control)), the “efficacy on lung fibrosis” value is recorded as “outstanding efficacy”. Further, in series [7] (three peptide formulations), the “TGFβ1 by RT-PCR” value is recorded as “decreased” and the “collagen α 1 by RT-PCR” value is given as “decreased”.
Consider `CC(C)[C@@H](NC(=O)[C@@H](C)NC(=O)[C@H](CCCCN)NC(=O)CCS)C(=O)N[C@@H](CC(=O)O)C(N)=O` [Mpr-Lys-DAla-DVal-Asp-NH2] ([Mpa]K[dA][dV]D-NH2), for which the “Conc. (ng/mL) in plasma” value in series [8] (4 hours after IV PEGylated-peptide 361332, 7.5 mg/kg peptide equivalent) is recorded as 1291 ng/mL; in series [8] (8 hours after IV PEGylated-peptide 361332, 7.5 mg/kg peptide equivalent), 900 ng/mL; in series [8] (24 hours after IV PEGylated-peptide 361332, 7.5 mg/kg peptide equivalent) it was 921 ng/mL; in series [8] (48 hours after IV PEGylated-peptide 361332, 7.5 mg/kg peptide equivalent) it was 1523 ng/mL.
